Data from patent US7910739B2, “Acetylcholinesterase dual inhibitors” (priority 2003, dated 2011).
Where two headings read alike, the source gives them in different places.

How the values were obtained:
[1] = target: T1, BuChE from human serum (Homo sapiens, UniProt P06276); test: Butyrylcholinesterase (BuChE) inhibition, Ellman colorimetric method; type: biochemical
T1 construct: 0.01 unit BuChE from human serum; from tissue; host or cells: human serum
Protocol: Butyrylcholinesterase (BuChE) Inhibition (from Human Serum)
BuChE inhibitory activity was evaluated at 30° C. by the colorimetric method reported by Ellman. The assay solution consisted of 0.01 unit BuChE from human serum, 0.1 M sodium phosphate buffer pH 8, 0.3 mM 5,5′-dithiobis(2-nitrobenzoic acid) (DTNB, Ellman's reagent), and 0.5 mM butyrylthiocholine iodide as the substrate of the enzymatic reaction. Enzyme activity was determined by measuring the absorbance at 405 nm during 5 minutes with a microplate reader Digiscan 340T. The tested compounds were preincubated with the enzyme for 10 minutes at 30° C. The reaction rate was calculated with, at least, triplicate measurements. The IC50 is defined as the concentration of each compound that reduces a 50% the enzymatic activity with respect to that without inhibitor.

[2] = system: human neuroblastoma cell line SH-SY5Y; test: Toxicity measurement (LDH release); type: cell-based; conditions: 24 hours exposure
Protocol: The cytotoxicity effect of the molecules was tested in the human neuroblastoma cell line SH-SY5Y. These cells were cultured in 96-well plates in DULBECCO'S MOD EAGLE medium, supplemented with 10% fetal bovine serum and 1% penicillin/streptomycin, and grown in a 5% CO2 humidified incubator at 37° C.
The cells were plated at 10^4 cells for each well, at least, 48 hours before the toxicity measure. Cells were exposed for 24 hours to the compounds at different concentrations (from 10^−5 to 10^−9), quantitative assessment of cell death was made by measurement of the intracellular enzyme lactate dehydrogenase (LDH) (citotoxicity detection kit, Roche). The quantity of LDH was evaluated in a microplate reader Anthos 2010, at 492 and 620 nm. Controls were taken as 100% viability.

[3] = target: AChE peripheral site (Bos taurus, UniProt P23795); test: Propidium competition (fluorescence); type: binding; conditions: 10 μM AchE, 20 μM propidium iodide, pH 8.0
Sequence of AChE peripheral site (P23795 other isoform, or with tags, fused parts or gaps): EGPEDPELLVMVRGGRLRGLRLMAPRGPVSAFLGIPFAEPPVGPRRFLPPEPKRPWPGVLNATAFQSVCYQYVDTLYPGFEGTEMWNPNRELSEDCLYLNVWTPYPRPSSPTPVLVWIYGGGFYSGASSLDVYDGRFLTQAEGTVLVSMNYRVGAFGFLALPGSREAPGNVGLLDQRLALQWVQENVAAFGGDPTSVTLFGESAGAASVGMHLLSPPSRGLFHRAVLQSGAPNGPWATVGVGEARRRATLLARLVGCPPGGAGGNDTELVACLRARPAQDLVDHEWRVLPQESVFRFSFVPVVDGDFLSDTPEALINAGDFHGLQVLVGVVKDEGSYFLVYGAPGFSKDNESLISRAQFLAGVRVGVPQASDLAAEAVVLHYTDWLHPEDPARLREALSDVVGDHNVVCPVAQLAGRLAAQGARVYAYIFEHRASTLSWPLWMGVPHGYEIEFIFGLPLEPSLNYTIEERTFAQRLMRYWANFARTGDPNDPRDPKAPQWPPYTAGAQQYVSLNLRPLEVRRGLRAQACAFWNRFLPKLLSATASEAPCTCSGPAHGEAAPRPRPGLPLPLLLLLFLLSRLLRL
Protocol: Fluorescence was measured in a Fluostar optima plate reader (BMG). Measurements were carried out in 100 μl solution volume, in 96-well plates. The buffer used wad 1 mM Tris/HCl, pH 8.0. 10 μM AchE was incubated, at least 6 hours, with the molecules at different concentrations. 20 μM propidium iodide was added 10 min before fluorescence measurement. The excitation wavelength was 485 nm, and that of emission, 620 nm.

[4] = target: T2, AChE (from bovine erythrocytes) (Bos taurus, UniProt P23795); test: biochemical; type: biochemical
T2 construct: 0.02 unit AChE (Sigma Chemical Co. from bovine erythrocytes); purchased Sigma Chemical Co; host or cells: bovine erythrocytes (natural source)
T2 sequence (P23795 other isoform, or with tags, fused parts or gaps): as above
Protocol: Acetylcholinesterase (AChE) Inhibition (from Bovine Erythrocytes)
AChE inhibitory activity was evaluated at 30° C. by the colorimetric method reported by Ellman [Ellman, G. L.; Courtney, K. D.; Andres, B.; Featherstone, R. M. Biochem. Pharmacol. 1961, 7, 88-95]. The assay solution consisted of 0.1 M phosphate buffer pH 8, 0.3 mM 5,5′-dithiobis(2-nitrobenzoic acid) (DTNB, Ellman's reagent), 0.02 unit AChE (Sigma Chemical Co. from bovine erythrocytes), and 0.5 mM acetylthiocholine iodide as the substrate of the enzymatic reaction. The compounds tested were added to the assay solution and pre incubated with the enzyme for 5 min at 30° C. After that period, the substrate was added. […] The compound concentration producing 50% of AChE inhibition (IC50) was determined.

[5] = target: T3, β-amyloid-huAChE aggregation complex (Homo sapiens, UniProt P22303); test: Inhibition of β-amyloid aggregation (Congo Red binding); type: biochemical; conditions: Aβ1-40 0.1 mM, Aβ:huAChE 200:1, 48 hours
T3 construct: purchased Sigma-Aldrich (huAChE); rPeptide (Aβ1-40)
T3 sequence (P22303 32-614, one chain of several): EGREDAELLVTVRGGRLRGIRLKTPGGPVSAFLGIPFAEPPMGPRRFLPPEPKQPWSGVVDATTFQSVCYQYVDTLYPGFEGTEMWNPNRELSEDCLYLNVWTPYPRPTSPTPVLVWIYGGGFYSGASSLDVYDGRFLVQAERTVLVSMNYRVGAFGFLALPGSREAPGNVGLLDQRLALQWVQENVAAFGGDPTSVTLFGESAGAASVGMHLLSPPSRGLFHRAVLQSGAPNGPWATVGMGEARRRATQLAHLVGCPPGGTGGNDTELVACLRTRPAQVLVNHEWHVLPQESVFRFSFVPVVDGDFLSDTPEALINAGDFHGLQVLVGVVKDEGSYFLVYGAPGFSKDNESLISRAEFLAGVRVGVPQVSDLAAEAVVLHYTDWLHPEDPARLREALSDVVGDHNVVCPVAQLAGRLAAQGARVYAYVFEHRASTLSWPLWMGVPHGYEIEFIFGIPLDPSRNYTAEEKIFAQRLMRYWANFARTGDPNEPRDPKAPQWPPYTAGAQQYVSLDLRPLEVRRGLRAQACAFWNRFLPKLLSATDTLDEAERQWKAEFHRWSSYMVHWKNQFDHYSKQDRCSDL
Protocol: Inhibition of β-Amyloid Aggregation
The generation of AChE-Aβ complexes were carried out as described previously [Alvarez, A et al. J. Neurosci., 1998, 18, 3213-3223; Muñoz, F. J.; Inestrosa, N. C. FEBS Let., 1999, 450, 205-209]. Stock solutions of Aβ1-40 (rPeptide, Georgia USA) at 3.5 mM were dissolved in PBS (pH 7.4) after HFIP treatment to obtain monomeric starting material, according to manufacture's recommendations. For co-incubation experiments, 0.1 mM of peptide was mixed with human recombinant acetylcholinesterase (huAchE, Sigma-Aldrich), in the same buffer at molar ratio Aβ:huAChE 200:1, and stirred for 48 hours in a microtiter plate at room temperature. The fibrils obtained were characterized by Congo Red (CR) binding.
For the inhibition of β-amyloid aggregation, the compounds tested were used at the IC50 defined in the previous paragraph of the biological evaluation, 50 μM propidium iodide was used as reference [Inestrosa, N. C et al., J. Neuron, 1996, 16, 881-891].
To quantify the amount of fibrils aggregated, the binding to CR was done as described [Klunk, W E.; Pettegrew, J W.; Abraham, D J. J. Hystochem Cytochem., 1989, 8, 1293-1297]. Briefly, 5.5 μl aliquot of the aggregation mixture was added to 132 μl of a 25 μM CR solution (100 mM phosphate buffer pH 7.4, 150 mM NaCl), and incubated for 30 minutes at room temperature. Absorbance was measured at 480 and 540 nm and the molarity of aggregates calculated by CR(M)=(A540/25295)−(A480/46306).

[6] = BuChE from human serum, 30° C., pH 8, read-out: IC50 BuChE
[7] = AChE from bovine erythrocytes, 30° C., pH 8, read-out: IC50 AChE

T1 sequence (P06276 29-602): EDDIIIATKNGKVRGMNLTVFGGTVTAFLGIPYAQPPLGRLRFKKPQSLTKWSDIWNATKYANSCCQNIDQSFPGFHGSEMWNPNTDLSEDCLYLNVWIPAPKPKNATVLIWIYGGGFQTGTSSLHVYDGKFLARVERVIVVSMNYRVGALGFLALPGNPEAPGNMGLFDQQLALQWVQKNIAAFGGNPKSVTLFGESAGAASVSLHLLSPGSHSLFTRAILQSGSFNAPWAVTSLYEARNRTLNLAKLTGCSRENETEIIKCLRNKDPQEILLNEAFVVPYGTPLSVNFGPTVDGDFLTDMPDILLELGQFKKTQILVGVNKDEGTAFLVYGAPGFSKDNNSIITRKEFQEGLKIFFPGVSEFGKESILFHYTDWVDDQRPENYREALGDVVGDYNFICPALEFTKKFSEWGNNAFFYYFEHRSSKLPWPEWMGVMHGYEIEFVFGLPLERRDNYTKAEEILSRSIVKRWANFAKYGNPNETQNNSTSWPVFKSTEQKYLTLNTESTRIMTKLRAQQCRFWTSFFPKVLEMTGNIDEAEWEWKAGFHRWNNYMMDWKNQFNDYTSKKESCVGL

| Compound | IC50 [1, 6] [nM] | Toxicity [2] [µM] | Propidium competition [3] [µM] | IC50 [4, 7] [nM] | reduction in the β-amyloid-huAChE aggregation complex ([5]; compound used at its IC50) [%] | IC50 [4] [nM] | IC50 [1] [nM] | reduction in the β-amyloid-huAChE aggregation complex ([5]; 50 μM propidium iodide as reference) [%] |
| --- | --- | --- | --- | --- | --- | --- | --- | --- |
| O=C(CCc1c[nH]c2ccccc12)NCCCCCCCNc1c2c(nc3cc(Cl)ccc13)CCCC2 [Compound 4, N-[7-(6-Chloro-1,2,3,4-tetrahydro-acridin-9-ylamino)-heptyl]-3-(1H-indol-3-yl)-propionamide] | 0.1 | 10 | 10 | 0.06 |  |  |  |  |
| O=C(CCc1c[nH]c2ccccc12)NCCCCCCNc1c2c(nc3cc(Cl)ccc13)CCCC2 [Compound 3] | 2.9 | 100 | 1000 | 0.02 | 15 |  |  |  |
| O=C(NCCCCCCCNc1c2c(nc3cc(Cl)ccc13)CCCC2)c1n[nH]c2ccccc12 [Compound 21, 1H-Indazole-3-carboxylic acid [7-(6-chloro-1,2,3,4-tetrahydroacridin-9-ylamino)heptyl]-amide] | 79 | >10 | 100 | 95 |  |  |  |  |
| Clc1ccc2c(NCCc3c[nH]c4ccccc34)c3c(nc2c1)CCCC3 [Comparative Example, N-[2-3(Indolyl)ethyl]-6-chlorotacrine, reference compound] |  |  |  | 537 |  |  |  |  |
| O=C(Cc1c[nH]c2ccc(Br)cc12)NCCCCCCCNc1c2c(nc3cc(Cl)ccc13)CCCC2 [Compound 18, 2-(5-Bromo-1H-indol-3-yl)-N-[7-(6-chloro-1,2,3,4-tetrahydro-acridin-9-ylamino)-heptyl]-acetamide] | 1.7 | >10 | 100 |  |  | 0.63 |  |  |
| O=C(CCc1c[nH]c2ccccc12)NCCCCCCCCCNc1c2c(nc3cc(Cl)ccc13)CCCC2 [Compound 6, N-[9-(6-Chloro-1,2,3,4-tetrahydro-acridin-9-ylamino)-nonyl]-3-(1H-indol-3-yl)-propionamide] | 9.6 | >100 | >100 |  |  |  |  |  |
| O=C(NCCCCCCNc1c2c(nc3cc(Cl)ccc13)CCCC2)OCCc1c[nH]c2ccccc12 [Compound 24, [6-(6-Chloro-1,2,3,4-tetrahydro-acridin-9-ylamino)-hexyl]-carbamic Acid 2-(1h-indol-3-yl)ethyl Ester] |  | >10 | 100 | 0.7 |  |  | 3.2 |  |
| O=C(NCCCCCNc1c2c(nc3cc(Cl)ccc13)CCCC2)c1c[nH]c2ccccc12 [Compound 10, 1H-Indole-3-carboxylic acid [5-(6-chloro-1,2,3,4-tetrahydro-acridin-9-ylamino)-pentyl]-amide] | 9.5 | >10 | 100 | 180 |  |  |  |  |
| O=C(CCCc1c[nH]c2ccccc12)NCCCCCCNc1c2c(nc3cc(Cl)ccc13)CCCC2 [Compound 16, N-[6-(6-Chloro-1,2,3,4-tetrahydro-acridin-9-ylamino)-hexyl]4-(1H-Indol-3-yl)-butyramide] | 5.6 | >10 | 100 | 0.48 |  |  |  |  |
| O=C(CCc1c[nH]c2ccccc12)NCCCCCNc1c2c(nc3ccccc13)CCCC2 [Compound 2, 3-(1H-Indol-3-yl)-N-[5-(1,2,3,4-tetrahydro-acridin-9-ylamino)-pentyl]-propionamide] | 1 | >100 | 10 | 70 |  |  |  |  |
| O=C(CCc1c[nH]c2ccccc12)NCCCCCCCCNc1c2c(nc3cc(Cl)ccc13)CCCC2 [Compound 5, N-[8-(6-Chloro-1,2,3,4-tetrahydro-acridin-9-ylamino)-octyl]-3-(1H-indol-3-yl)propionamide] | 5.7 | 10 | 10 | 0.5 |  |  |  |  |
| O=C(NCCCCCCCNc1c2c(nc3cc(Cl)ccc13)CCCC2)c1c[nH]c2ccccc12 [Compound 12, 1H-Indole-3-carboxylic acid [7-(6-chloro-1,2,3,4-tetrahydro-acridin-9-ylamino)-heptyl]-amide] | 19 | >10 | 100 | 36 |  |  |  |  |
| O=C(NCCCCCCNc1c2c(nc3cc(Cl)ccc13)CCCC2)c1c[nH]c2ccccc12 [Compound 11, 1H-Indole-3-carboxylic acid [6-(6-chloro-1,2,3,4-tetrahydro-acridin-9-ylamino)-hexyl]-amide] | 1.7 | >10 | 100 | 33 |  |  |  |  |
| CC[N+](C)(CC)CCC[n+]1c(-c2ccccc2)c2cc(N)ccc2c2ccc(N)cc21 [propidium iodide, reference compound] |  |  |  |  |  |  |  | 10 |
| O=C(CCc1c[nH]c2ccccc12)NCCCCCCCCCCNc1c2c(nc3cc(Cl)ccc13)CCCC2 [Compound 7, N-[10-(6-Chloro-1,2,3,4-tetrahydro-acridin-9-ylamino)-decyl]-3-(1H-indol-3-yl)-propionamide] | 54 | >100 | 10 | 21.9 |  |  |  |  |
| CN(CCCNC(=O)CCc1c[nH]c2ccccc12)CCCNc1c2c(nc3ccccc13)CCCC2 [Compound 8, N-(3-{[3-(1,2,3,4-tetrahydro-acridin-9-ylamino)-propyl]-methyl-amino}-propyl)-3-(1H-indol-3-yl)propionamide] | 0.03 | >100 | 1000 | 147 | 17 |  |  |  |
| O=C(NCCCCCCCCNc1c2c(nc3cc(Cl)ccc13)CCCC2)c1c[nH]c2ccccc12 [Compound 13, 1H-Indole-3-carboxylic acid [8-(6-chloro-1,2,3,4-tetrahydro-acridin-9-ylamino)octyl]-amide] | 22.4 | >10 | 10 | 46 |  |  |  |  |
| CN(CCCNC(=O)CCc1c[nH]c2ccccc12)CCCNc1c2c(nc3cc(Cl)ccc13)CCCC2 [Compound 9, N-(3-{[3-(6-chloro-1,2,3,4-tetrahydro-acridin-9-ylamino)-propyl]-methyl-amino}-propyl)-3-(1H-indol-3-yl)-propionamide] | 7.57 | >100 | 10 | 2.88 |  |  |  |  |
